Assay results reported in patent US10561606B2, “Injectable long-acting local anesthetic semi-solid gel formulations” (Mira Pharma Corporation, priority 2017, dated 2020).
Counter-ions that a name gives are not always drawn. One block for each molecule: values may come before it.

What was measured:
[1] = BASF MSDS sheet; cited from earlier work
[2] = Solubility/loading of local anesthetic in oils, castor oil and semi-solid vehicle; type: physicochemical
sciatic nerve = conditions: cited from earlier work
[3] = cited from earlier work
[4] = limited by low solubility in the vehicle; cited from earlier work
[5] = in poly(lactic acid-co-castor oil), single injection

SMILES: CCCCN1CCCCC1C(=O)Nc1c(C)cccc1C (stereo not drawn) [bupivacaine hydrochloride]
water solubility [1]: 600 mg/mL

solubility in corn oil [2]: 2.8 wt %
solubility in olive oil [2]: 2.5 wt %
solubility in sesame oil [2]: 3.0 wt %
solubility in typical vegetable oils [2]: less than 3 wt %
solubility in vegetable oil [2]: 2.5 wt %
SMILES: CCCCN1CCCCC1C(=O)Nc1c(C)cccc1C (stereo not drawn) [bupivacaine]
sciatic nerve blockade prolonged to (sciatic nerve; 10% (w/v) in poly(sebacic-co-ricinoleic acid), from 8 hours): 30 h
duration of nerve block (sciatic nerve; in poly(lactic acid-co-castor oil) at 10% (w/v)): 1 to 2 days
duration of sensory blockade (sciatic nerve; in poly(lactic acid-co-castor oil) at 15% (w/v)): 96 h
motor blockade (sciatic nerve; [5]): 64 h
sensory blockade (sciatic nerve; [5]): 96 h
release of bupivacaine from the oil ([3]; fractionated coconut oil, in less than two hours, rotating dialysis cell): 80%
stored bupivacaine released during one week ([3]; from poly(lactic acid-co-castor oil)): 60%
incorporated drug released over one week in vitro ([3]; from poly(sebacic-co-ricinoleic acid)): 70%

SMILES: Cc1cccc(C)c1NC(=O)C1CCCCN1C (stereo not drawn) [mepivacaine]
amount that can be loaded into polyorthoester vehicle [4]: about 3 wt %
